{"source": "ChEMBL document CHEMBL1158313", "about": "“Isolation of New Steroidal Hemiacetals from the Gorgonian Euplexaura anastomosans” (J Nat Prod, 1996)", "key": {"Artemia": {"system": "Artemia", "assay": "Toxicity against brine shrimp larvae", "type": "organism-based", "conditions": "in vivo"}, "P388": {"system": "P388", "assay": "Cytotoxicity against mouse P388 cells", "type": "functional, cell-based"}}, "note": "Activity calls are given as the source filed them. The rule behind the calls is not given here."}
{"molecule": "CC(C)[C@H]1CC[C@H]([C@@]2(O)CC[C@H]3[C@@H]4CCC5=CC(=O)C=C[C@]5(C)[C@H]4CC[C@@]32C)[C@H](O)O1", "note": "[ANASTOMOSACETAL A]", "values": [{"measurement": "Activity", "setting": "Artemia", "result": "Non-toxic"}, {"measurement": "Activity", "setting": "P388", "result": "inactive"}]}
{"molecule": "CC(C)[C@H]1CC[C@H]([C@@]2(O)CC[C@H]3[C@@H]4CC[C@H]5CC(=O)C=C[C@]5(C)[C@H]4CC[C@@]32C)[C@H](O)O1", "note": "[ANASTOMOSACETAL B]", "values": [{"measurement": "Activity", "setting": "Artemia", "result": "Non-toxic"}, {"measurement": "Activity", "setting": "P388", "result": "inactive"}]}
{"molecule": "CC(C)[C@H]1CC[C@H]([C@@]2(O)CC[C@H]3[C@@H]4CCC5=CC(=O)CC[C@]5(C)[C@H]4CC[C@@]32C)[C@H](O)O1", "note": "[ANASTOMOSACETAL C]", "values": [{"measurement": "Activity", "setting": "Artemia", "result": "Non-toxic"}, {"measurement": "Activity", "setting": "P388", "result": "inactive"}]}
{"molecule": "CC(C)[C@H]1CC[C@H]([C@@]2(O)CC[C@H]3[C@@H]4CC[C@H]5CC(=O)CC[C@]5(C)[C@H]4CC[C@@]32C)[C@H](O)O1", "note": "[ANASTOMOSACETAL D]", "values": [{"measurement": "Activity", "setting": "Artemia", "result": "Non-toxic"}, {"measurement": "Activity", "setting": "P388", "result": "inactive"}]}
